Results from patent US20090305225A1, “Inhibition of Creatine Uptake to Promote Weight Loss” (priority 2005, published 2009).

How the values were obtained:
[1] = system: 11G2L cDNA (creatine transporter mRNA); assay: Differential display of hypothalamic mRNA (band 11G2L); format: in vivo, rat; details: icv CoPP 0.4 umol/kg, 48 hours, absent in vehicle fed and fasted rats
Experimental: RNA Extraction from Rat Hypothalamus. Adult male Sprague-Dawley rats were randomly separated into three groups. Group 1 (control) was injected icv with saline and fed ad lib. Group 2 (fasted) was injected icv with saline and allowed ad lib access to water only; Group 3 (CoPP) was injected icv with CoPP 0.4 umol/kg body weight and fed ad lib. After 24 and 48 hours, weights were measured. Only those rats with robust weight loss of at least 10% of initial body weight 48 hours after treatment were chosen for the CoPP group. Eleven rats from each group were then killed by decapitation, using procedures outlined in the Animal Welfare Act and as approved by the University of Vermont, Office of Animal Care Management. The hypothalamic block of each rat was dissected from the rat's brain as described and immediately homogenized with RNase-free homogenizer. Total RNA was extracted using an Ultraspec-II RNA kit (Biotecx Laboratories, Inc., Houston, Tex.) following the manufacturer's procedures and stored at −80 degrees C. until analysis.
Differential Display-Reverse Transcription-Polymerase Chain Reaction (DD-RT-P). The RNAimage mRNA Differential Display system was purchased from GenHunter Corporation (Nashville, Tenn.). Three anchored H-T11M (where M refer to G, A, or C) primers and 12 sets of arbitrary primers (HAP 1 to 12) were chosen to use in this particular experiment. […]

[2] = system: creatine transporter (CrT) protein; assay: Creatine transporter immunoreactivity in rat brain; format: in vivo; details: 4 hours after icv 0.4 um/kg; dorsomedial, supramamillary nucleus, III ventricle, habenular (p<0.05), paraventricular thalamic areas; FIG. 7
Experimental: In experiments involving immunohistochemistry, animals were injected icv with CoPP 0.4 umol/kg body weight or with vehicle. Four hours after injection, animals were anesthetized with halothane and perfused through the left ventricle of the heart, initially with oxygenated Krebs buffer and then with ˜350 ml of 4% paraformaldehyde in 0.1M NaCl, pH 7.4 phosphate buffered saline (PBS). Brains were extracted from the skull, hypothalamic blocks dissected (by coronal cuts anterior and posterior to hypothalamic landmarks) and post-fixed in 4% paraformaldehyde solution at 4 degrees C. overnight. The following day, the blocks were transferred to 30% sucrose and incubated overnight at 4 degrees C. […] They were allowed to dry, rewetted with PBS buffer and cover-slipped with Citifluor (Ted Pella, Reading, Calif.). Creatine transporter (CrT) and Fos studies were performed using indirect fluorescence visualization with rabbit anti-CrT (1:40; Alpha Diagnostics, San Antonio, Tex.) with goat anti-rabbit Cy3 (Jackson Immuno Research Laboratories, Inc., West Grove, Pa.) and rabbit c-Fos-AB5 (1:2,000; Oncogene Research Products, Cambridge, Mass.) with goat anti-rabbit Cy3 (1:500; Jackson Immuno Research Laboratories, Inc.) as the secondary antibody. […] Areas of interest were quantitated on each section in which they appeared and averaged to yield means+SEM of percentages. […]

C=Cc1c(C)c2cc3[nH]c(cc4nc(cc5nc(cc1[nH]2)C(C)=C5CCC(=O)[O-])C(CCC(=O)[O-])=C4C)c(C)c3C=C.[Co+2] [CoPP, Cobaltic protoporphyrin IX]
cDNA band 11G2L in differential display [1]: present
immunoreactive (IR) CrT compared to controls and fasted controls [2]: increased
